Measured values as given in paper PMC9688225, “α-Lipoic Acid Derivatives as Allosteric Modulators for Targeting AMPA-Type Glutamate Receptors’ Gating Modules” (Cells, 2022).
Read-outs that look alike come from different tables or passages of the source.

How the values were obtained:
Assay type in all cases: cell-based
[1] = biological target: T1, GluA1 AMPA receptor subunit (flip isoform) (Homo sapiens, UniProt P42261); assay: Whole-cell patch-clamp electrophysiology, homomeric GluA1 expressed in HEK293 cells; conditions: for Amplitude (glutamate + compound): 10 mM glutamate + 12 µM compound, −60 mV, pH 7.4, 22 °C, mean ± SEM; for Amplitude (glutamate + compound) / A/AI (current with glutamate alone / current with glutamate + compound): n = 10; for A/AI (current with glutamate alone / current with glutamate + compound): 10 mM glutamate, 12 µM compound; for IC50: Hill fit; for t deact (weighted deactivation time constant) / t des (weighted desensitization time constant): glutamate + 12 µM compound; for t deact (weighted deactivation time constant): glutamate alone 2.2±0.1 ms; for t des (weighted desensitization time constant): glutamate alone 2.3±0.1 ms
T1 construct: expressed in transfected cells; host or cells: HEK293
Experimental: (§1) Up to 20 μg of high-copy plasmid DNA was prepared using the QIAGEN Plasmid Mini Kit, the tubes were then centrifuged to extract the supernatant containing the plasmid DNA, ethanol was used to wash the DNA pellet, then centrifuged again and the supernatant was carefully removed as to not disturb the pellet, finally, the pellet was air-dried, and the DNA was re-dissolved in a suitable volume of buffer, (our prior study detailed the whole DNA preparation data). The flip isoform was used in all AMPAR subunits used in this investigation. AMPAR subunits were subcloned in pRK and expressed in the human embryonic kidney cells (HEK293) (The HEK293 cell line was obtained from Sigma, Schnelldorf, Germany). IPA (Integrated Patch Amplifier) recorded HEK293 cells 36–48 h after transfection using the patch-clamp method (Sutter Instruments, Novato, CA, USA). A high-speed piezo solution switcher was installed on a double-barreled glass (theta tube) to provide solutions fast, isolate receptor responses from any network influences, and preserve, as much as possible, the postsynaptic protein machinery. Thus, inhibition was measured by comparing the current recorded when glutamate alone was administered to the current observed when glutamate plus the compound of interest was delivered to the same cell. Before administering the α-LA compounds, experiments were conducted to determine the appropriate concentration to be delivered to the cells without harming them. Dichloromethane (12 µM) effect on GluA1 and GluA2 subunits was tested to ensure that it had no effect on AMPA receptor currents (Figure S8). The effect of α-LA compounds on AMPA subunits plateaued at a concentration of 12 µM because LA inhibits AMPA receptors at low concentrations and continues to inhibit them when LA concentrations are increased by 2 µM each interval, as shown in Figure S1. The concentration increased by 2 µM each time to ensure that no cells were harmed. The cells were washed for 20 s between α-LA derivatives (12 µM), and 10 mM glutamate was supplied alone after each α-LA compound to ensure cell health. Data analysis was carried out using Igor Pro7 (Wave Metrics, inc). For both desensitization (τw des) and deactivation rates (τw deact), an exponential fit to the current decline was obtained at 95% of peak to baseline current. The weighted tau (τw) was calculated as τw = (τf × af) + (τs × as), where af and as are the amplitudes of the fast (τf) and slow (τs) exponential components, respectively. Our study detailed the experimental data set.
(§2) Data are presented as mean ± standard error of the mean (SEM). The number of samples (n = 10) refers to the total number of tested HEK293 cells. Statistical differences between the groups and the wild type were examined by One Way Analysis of Variance (ANOVA), with values of p < 0.05 being considered to indicate statistical significance: (*) p < 0.05, (**) p < 0.01, (***) p < 0.001, ns, not significant. Concentration-response relationships were fitted as composite curves using GraphPad Prism version 6.01 (GraphPad Software, San Diego, CA, USA) to the Hill equation. All results were representative of at least three independent experiments.
(§3) Figure 2 Suppression of AMPA receptor currents by α-LA compounds. Graphs (a,c,e,g) present AMPA receptor currents (pA) before and after the administration of α-LA derivatives on GluA1, GluA1/2, GluA2, and GluA2/3 subunits. While (b,d,f,h) present the ratio A/AI, where A represents the current caused by 10 mM glutamate alone and AI represents the current induced by glutamate + α-LA (12 µM). The whole-cell current was measured at −60 mV, pH 7.4, and 22 °C. A one way analysis of variance (ANOVA) was performed for comparison: *** p < 0.001; ns, not significant. Ten cells were investigated for each LA compound. All values are shown as mean SEM.
(§4) Figure 3 The potency of LA compounds against AMPA receptor subunits. […]

[2] = biological target: T2, GluA1/2 AMPA receptor subunits (flip isoform) (Homo sapiens, UniProt P42261+P42262); assay: Whole-cell patch-clamp electrophysiology, heteromeric GluA1/2 expressed in HEK293 cells; conditions: for Amplitude (glutamate + compound): 10 mM glutamate + 12 µM compound, −60 mV, pH 7.4, 22 °C, mean ± SEM; for Amplitude (glutamate + compound) / A/AI (current with glutamate alone / current with glutamate + compound): n = 10; for A/AI (current with glutamate alone / current with glutamate + compound): 10 mM glutamate, 12 µM compound; for IC50: Hill fit; for t deact (weighted deactivation time constant) / t des (weighted desensitization time constant): glutamate + 12 µM compound; for t deact (weighted deactivation time constant): glutamate alone 2.5±0.3 ms; for t des (weighted desensitization time constant): glutamate alone 5.3±0.4 ms
T2 construct: expressed in transfected cells; host or cells: HEK293
Experimental: as §1, §2, §3, §4

[3] = biological target: T3, GluA2/3 AMPA receptor subunits (flip isoform) (Homo sapiens, UniProt P42262+P42263); assay: Whole-cell patch-clamp electrophysiology, heteromeric GluA2/3 expressed in HEK293 cells; conditions: for Amplitude (glutamate + compound): 10 mM glutamate + 12 µM compound, −60 mV, pH 7.4, 22 °C, mean ± SEM; for Amplitude (glutamate + compound) / A/AI (current with glutamate alone / current with glutamate + compound): n = 10; for A/AI (current with glutamate alone / current with glutamate + compound): 10 mM glutamate, 12 µM compound; for IC50: Hill fit; for t deact (weighted deactivation time constant) / t des (weighted desensitization time constant): glutamate + 12 µM compound; for t deact (weighted deactivation time constant): glutamate alone 2.4±0.3 ms; for t des (weighted desensitization time constant): glutamate alone 2.7±0.3 ms
T3 construct: expressed in transfected cells; host or cells: HEK293
Experimental: as §1, §2, §3, §4

[4] = system: AMPA receptor subunits (GluA1, GluA2, GluA1/2, GluA2/3); assay: Whole-cell patch-clamp electrophysiology, summary over the AMPA receptor subunits in HEK293 cells; conditions: for decrease in the peak current of the AMPARs / increase of the rate of AMPA receptor deactivation (τw deact) / reduction in the rate of desensitization (τw des): all AMPA receptor subunits, 12 µM compound; for IC50: over GluA1, GluA1/2, GluA2, GluA2/3, read-out: approximate IC50 against AMPA receptor subunits
Experimental: as §1, §2
The levels of inhibition of α-LA and its derivatives attracted our attention to assessing the potency of the compounds in a concentration-dependent manner. […] The concentration−inhibition curves were produced by administering glutamate alone at a concentration of 10 mM, followed by glutamate + α-LA derivatives at varying concentrations (in μM) for every recording point. Afterward, the cells were normalized back by administering glutamate alone. Since the glutamate concentration in the synaptic cleft constantly saturates the receptors, driving the response to a near maximum level, variability occurs because the maximum level changes. […]

[5] = biological target: T4, GluA2 AMPA receptor subunit (flip isoform) (Homo sapiens, UniProt P42262); assay: Whole-cell patch-clamp electrophysiology, homomeric GluA2 expressed in HEK293 cells; conditions: for Amplitude (glutamate + compound): 10 mM glutamate + 12 µM compound, −60 mV, pH 7.4, 22 °C, mean ± SEM; for Amplitude (glutamate + compound) / A/AI (current with glutamate alone / current with glutamate + compound): n = 10; for A/AI (current with glutamate alone / current with glutamate + compound): 10 mM glutamate, 12 µM compound; for IC50: Hill fit; for t deact (weighted deactivation time constant) / t des (weighted desensitization time constant): glutamate + 12 µM compound; for t deact (weighted deactivation time constant): glutamate alone 2.4±0.1 ms; for t des (weighted desensitization time constant): glutamate alone 2.6±0.1 ms
T4 construct: expressed in transfected cells; host or cells: HEK293
Experimental: as §1, §2, §3, §4

[6] = whole-cell normalized peak amplitude, unit printed in the text, not in Table S6, read-out: IC50

T2 sequence (P42261 19-906 isoform P42261-2 limits assumed): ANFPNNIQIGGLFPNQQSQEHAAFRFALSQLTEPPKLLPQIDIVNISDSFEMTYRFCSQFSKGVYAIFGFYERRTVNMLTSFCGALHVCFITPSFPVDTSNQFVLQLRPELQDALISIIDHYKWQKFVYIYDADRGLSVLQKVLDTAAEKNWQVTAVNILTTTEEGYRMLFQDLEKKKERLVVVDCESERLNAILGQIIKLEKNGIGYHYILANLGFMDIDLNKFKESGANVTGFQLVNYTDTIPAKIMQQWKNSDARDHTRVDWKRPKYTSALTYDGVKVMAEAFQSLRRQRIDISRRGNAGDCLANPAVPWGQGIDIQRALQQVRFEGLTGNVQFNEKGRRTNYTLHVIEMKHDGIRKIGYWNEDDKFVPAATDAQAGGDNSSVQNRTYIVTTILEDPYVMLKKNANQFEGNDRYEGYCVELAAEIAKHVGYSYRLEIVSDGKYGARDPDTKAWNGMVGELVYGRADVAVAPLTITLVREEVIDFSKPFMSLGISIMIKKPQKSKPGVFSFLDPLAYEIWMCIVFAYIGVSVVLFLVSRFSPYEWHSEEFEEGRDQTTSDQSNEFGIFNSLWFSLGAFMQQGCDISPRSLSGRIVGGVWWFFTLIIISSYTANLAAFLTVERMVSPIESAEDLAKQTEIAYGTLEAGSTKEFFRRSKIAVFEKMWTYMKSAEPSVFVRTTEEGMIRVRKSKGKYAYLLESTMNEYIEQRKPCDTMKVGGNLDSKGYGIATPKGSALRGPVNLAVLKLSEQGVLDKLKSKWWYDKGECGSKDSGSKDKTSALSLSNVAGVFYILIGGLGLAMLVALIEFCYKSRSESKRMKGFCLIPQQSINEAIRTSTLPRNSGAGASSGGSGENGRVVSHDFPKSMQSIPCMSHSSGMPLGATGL
T2 sequence (P42262 25-883 isoform P42262-2 limits assumed): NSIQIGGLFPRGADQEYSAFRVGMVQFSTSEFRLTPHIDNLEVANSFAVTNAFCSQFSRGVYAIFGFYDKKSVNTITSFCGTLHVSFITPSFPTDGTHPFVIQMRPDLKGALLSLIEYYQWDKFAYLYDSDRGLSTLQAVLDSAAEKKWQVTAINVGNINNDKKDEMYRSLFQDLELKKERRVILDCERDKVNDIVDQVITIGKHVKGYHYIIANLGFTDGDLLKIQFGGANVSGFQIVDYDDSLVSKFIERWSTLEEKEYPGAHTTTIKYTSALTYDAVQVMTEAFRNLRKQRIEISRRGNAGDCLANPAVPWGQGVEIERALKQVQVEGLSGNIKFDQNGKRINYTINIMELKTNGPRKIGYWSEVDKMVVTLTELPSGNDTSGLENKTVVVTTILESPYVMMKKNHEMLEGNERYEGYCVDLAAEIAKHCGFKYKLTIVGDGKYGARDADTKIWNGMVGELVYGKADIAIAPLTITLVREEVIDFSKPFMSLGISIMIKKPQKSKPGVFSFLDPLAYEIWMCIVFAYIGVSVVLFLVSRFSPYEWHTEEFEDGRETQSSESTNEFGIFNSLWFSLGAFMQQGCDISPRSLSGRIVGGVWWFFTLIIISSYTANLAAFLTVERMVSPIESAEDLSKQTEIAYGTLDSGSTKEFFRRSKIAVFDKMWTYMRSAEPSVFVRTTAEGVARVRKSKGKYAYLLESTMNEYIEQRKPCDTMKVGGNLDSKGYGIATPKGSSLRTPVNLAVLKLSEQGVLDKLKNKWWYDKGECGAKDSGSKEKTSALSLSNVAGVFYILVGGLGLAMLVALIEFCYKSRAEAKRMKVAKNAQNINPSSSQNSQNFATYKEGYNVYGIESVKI
T1 sequence (P42261 19-906 isoform P42261-2 limits assumed): as the sequence (P42261 19-906 isoform P42261-2 limits assumed) above
T3 sequence (P42262 25-883 isoform P42262-2 limits assumed): as the sequence (P42262 25-883 isoform P42262-2 limits assumed) above
T3 sequence (P42263 29-894 isoform P42263-2 limits assumed): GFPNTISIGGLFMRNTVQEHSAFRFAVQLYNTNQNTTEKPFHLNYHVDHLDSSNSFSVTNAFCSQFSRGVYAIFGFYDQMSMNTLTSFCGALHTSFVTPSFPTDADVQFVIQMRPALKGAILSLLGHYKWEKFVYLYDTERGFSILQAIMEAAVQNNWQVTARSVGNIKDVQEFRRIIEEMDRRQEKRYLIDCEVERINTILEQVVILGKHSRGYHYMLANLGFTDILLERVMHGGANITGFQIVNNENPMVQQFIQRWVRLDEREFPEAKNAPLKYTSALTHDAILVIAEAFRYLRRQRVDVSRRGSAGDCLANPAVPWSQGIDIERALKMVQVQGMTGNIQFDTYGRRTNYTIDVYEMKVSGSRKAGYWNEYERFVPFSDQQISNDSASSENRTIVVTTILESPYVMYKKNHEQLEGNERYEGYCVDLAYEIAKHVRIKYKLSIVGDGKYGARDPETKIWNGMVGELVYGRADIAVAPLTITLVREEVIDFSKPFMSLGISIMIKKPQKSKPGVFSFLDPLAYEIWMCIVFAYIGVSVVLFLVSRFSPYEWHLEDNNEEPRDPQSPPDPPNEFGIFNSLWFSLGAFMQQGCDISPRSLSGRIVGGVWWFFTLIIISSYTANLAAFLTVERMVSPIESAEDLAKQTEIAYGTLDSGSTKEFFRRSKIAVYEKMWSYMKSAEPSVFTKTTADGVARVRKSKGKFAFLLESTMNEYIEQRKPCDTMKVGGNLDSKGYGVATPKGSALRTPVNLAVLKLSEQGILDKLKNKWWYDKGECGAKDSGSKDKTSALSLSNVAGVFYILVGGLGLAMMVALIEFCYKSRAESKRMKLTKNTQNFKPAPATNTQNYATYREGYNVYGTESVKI
T4 sequence (P42262 25-883 isoform P42262-2 limits assumed): as the sequence (P42262 25-883 isoform P42262-2 limits assumed) above

Amplitude (glutamate + compound) [1] [pA]	A/AI (current with glutamate alone / current with glutamate + compound) [1]	IC50 ([1]; read-out: Log IC50 (converted)) [µM]	t deact (weighted deactivation time constant) [1] [ms]	IC50 [1, 6] [µM]	Amplitude (glutamate + compound) [2] [pA]	A/AI (current with glutamate alone / current with glutamate + compound) [2]	IC50 ([2]; read-out: Log IC50 (converted)) [µM]	t deact (weighted deactivation time constant) [2] [ms]	IC50 [2, 6] [µM]	Amplitude (glutamate + compound) [3] [pA]	A/AI (current with glutamate alone / current with glutamate + compound) [3]	IC50 ([3]; read-out: Log IC50 (converted)) [µM]	t deact (weighted deactivation time constant) [3] [ms]	IC50 [3, 6] [µM]	Compound	t des (weighted desensitization time constant) [1] [ms]	t des (weighted desensitization time constant) [2] [ms]	t des (weighted desensitization time constant) [3] [ms]	decrease in the peak current of the AMPARs [4]	increase of the rate of AMPA receptor deactivation (τw deact) [4]	other results
89±12.0	10.43±0.7	3.47	9.5 ± 0.5	3.47	60±9.0	10.32±1.0	3.55	10.1 ± 0.7	3.54	52±8.0	10.14±1.0	3.8	10.1 ± 0.6	3.8	O=C(CCCCC1CCSS1)OCCCO (stereo not drawn) [LA1, 1-Hydroxy-3-Lipo Ester]	0.8 ± 0.1	2.8 ± 0.3	1.2 ± 0.09	about 10 fold	about 4 fold	reduction in the rate of desensitization (τw des) [4]: 3–4 fold; IC50 [4]: 3.5 to 3.8 µM; Amplitude (glutamate + compound) [5]: 124±19.0 pA; A/AI (current with glutamate alone / current with glutamate + compound) [5]: 10.22±0.8; IC50 ([5]; read-out: Log IC50 (converted)): 3.63 µM; t deact (weighted deactivation time constant) [5]: 10.4 ± 0.9 ms; t des (weighted desensitization time constant) [5]: 1.0 ± 0.06 ms; IC50 [5, 6]: 3.63 µM
79±11.0	11.53±0.8	3.39	11.6 ± 0.7	3.35	57±8.0	11.34±0.9	3.39	11.1 ± 0.9	3.41	46±7.0	11.03±1.0	3.63	10.8 ± 0.9	3.61	O=C(CCCCC1CCSS1)OCCCO[N+](=O)[O-] (stereo not drawn) [LA2, 1-Nitrooxy–propane-3-lipoyl ester]	0.6 ± 0.1	2.7 ± 0.2	0.9 ± 0.09	~11 fold	approximately 5 fold	reduction in the rate of desensitization (τw des) [4]: 3–4 fold; IC50 [4]: ~3.5 µM; Amplitude (glutamate + compound) [5]: 112±17.0 pA; A/AI (current with glutamate alone / current with glutamate + compound) [5]: 11.16±0.7; IC50 ([5]; read-out: Log IC50 (converted)): 3.55 µM; t deact (weighted deactivation time constant) [5]: 10.9 ± 0.7 ms; t des (weighted desensitization time constant) [5]: 0.8 ± 0.08 ms; IC50 [5, 6]: 3.51 µM
114±12.0	8.13±0.6	3.63	8.1 ± 0.4	3.59	81±12.0	8.05±0.8	4.37	7.9 ± 0.67	4.33	71±14.0	7.84±0.9	4.47	7.6 ± 0.7	4.46	O=C(CCCCC1CCSS1)OCCCCCCO[N+](=O)[O-] (stereo not drawn) [LA3, 1-Nitrooxy–Hexane-6-lipoyl ester]	1.7 ± 0.1	3.6 ± 0.2	1.9 ± 0.1	roughly 8 fold	roughly 3 fold	Amplitude (glutamate + compound) [5]: 155±25 pA; A/AI (current with glutamate alone / current with glutamate + compound) [5]: 7.91±0.7; IC50 ([5]; read-out: Log IC50 (converted)): 4.37 µM; t deact (weighted deactivation time constant) [5]: 7.7 ± 0.3 ms; t des (weighted desensitization time constant) [5]: 1.8 ± 0.04 ms; IC50 [5, 6]: 4.37 µM
121±18	7.79±0.5	4.17	7.5 ± 0.3	4.18	87±13.0	7.70±0.7	4.37	7.4 ± 0.4	4.41	72±15.0	7.58±0.7	4.79	6.9 ± 0.5	4.76	O=C(CCCCC1CCSS1)OCCCCCCO (stereo not drawn) [LA4, 1-Hydroxy-6-Lipoester]	1.8 ± 0.1	3.7 ± 0.3	2.0 ± 0.1	roughly 8 fold	roughly 3 fold	Amplitude (glutamate + compound) [5]: 166±28 pA; A/AI (current with glutamate alone / current with glutamate + compound) [5]: 7.65±0.5; IC50 ([5]; read-out: Log IC50 (converted)): 4.47 µM; t deact (weighted deactivation time constant) [5]: 7.1 ± 0.4 ms; t des (weighted desensitization time constant) [5]: 1.9 ± 0.07 ms; IC50 [5, 6]: 4.47 µM
